Test results from US20120165334A1, “Indole/Benzimidazole Compounds as mTOR Kinase Inhibitors” (AMGEN INC., priority 2009, published 2012).
Where two headings read alike, the source gives them in different places.

Columns and labels:
mTOR = target: T1, mTOR (Homo sapiens, UniProt P42345); experiment: mTOR LanthaScreen (TR-FRET, phosphorylation of 4EBP1); type: biochemical; settings: read-out: AA11016+++mTor_MA_IC50_IP
T1 construct: 2.5 μl of 0.6 μg/ml of mTOR Enzyme (Amgen) was added to rows 1-23
Description: The mTOR LanthaScreen is a TR-FRET assay measuring the phosphorylation of mTOR's substrate 4EBP1. 384 well compound plates were prepared containing 1 μl of compound per well starting at 5 mM and diluted 1:2 across the row, resulting in a 22 well serial dilution.
The assay was conducted on the PerkinElmer® FlexDrop PLUS. A 5 μl mix of 800 nM GFP-4E-BP1 (Invitrogen, PV4759) and 20 μM ATP (Amgen) was added to rows 1-24. 2.5 μl of 0.6 μg/ml of mTOR Enzyme (Amgen) was added to rows 1-23. 2.5 μl of assay buffer was added to row 24 for the low control. […] The final concentrations in the assay reagents were 400 nM GFP-4E-BP1, 10 μM of ATP and 0.15 μg/ml of mTOR enzyme. The compound, enzyme, and substrate incubate for 90 minutes.

[1] = test system: phosphorylation of Akt at Serine 473; experiment: pAkt AlphaScreen in U87 MG cells; type: cell-based; settings: read-out: AA11809+++pAKT_U87_IC50_IP
Description: The pAkt AlphaScreen assay determines whether there is phosphorylation of Akt at Serine 473 by recruitment of a phosphospecific antibody. This assay was performed using U87 MG cells. […] The cells were maintained weekly using 0.05% Trypsin (Gibco, 25300-054) and replated in 150 mm TC—Treated Culture Dishes (Corning, 430599).
The first day of the assay, the adherent cells were trypsinized, media was added to the loose cells and cells were mixed to a homogenous mixture. 0.5 ml of the homogenous mixture was counted on the Beckman Coulter® Vi-CELL™ XR. 50 frames of cells were counted and the number of viable cells was determined. The cells were then diluted to 0.25 million cells per ml, and centrifuged at 200 rcf for 5 minutes. The media was removed and the cells were reconstituted in fresh media for plating. The cells were plated at 20 μl per well on the PerkinElmer® FlexDrop PLUS in Low Volume 384 Well White Tissue Culture Plates (Corning, 3826) with a final cell density of 5K cells per well. The plates were incubated overnight at 37° Celsius, 5% CO2.
On the second day, the compound plates were prepared, the cells were treated with compound and the pAkt reaction mix was added to the cell lysate. 384 well compound plates were prepared by Amgen's Sample Bank containing […] of compound per well starting at 5 mM and diluted 1:2 across the row, resulting in a 22 well serial dilution. 39 μl of growth media was added to the compound plate in rows 1-22 using the PerkinElmer® FlexDrop PLUS resulting in a DMSO concentration of 2.5%. The control columns were added manually; 40 μl of 2.5% DMSO (Sigma, D4540-100 ml) in growth media was added to the plate for the high control and 40 μl of 50 μM of AMG2203766 with 2.5% DMSO was added to the plate as the low control. The cell plates and diluted compound plates were put onto the VELOCITY1 1™ VPREP™ 384 ST where the compound plate was mixed and 5 μl of serially diluted compound or controls was added to the cell plate. […] The cell plates were then incubated with compound for two hours at 37° Celsius, 5% CO2. After two hours, the media in the cell plates was aspirated using the BioTek® ELx405HT plate washer removing the majority of media and compound without disturbing the adherent U87 cells. The following assay reagents are components of the SureFire Akt (Ser 473) Phosphorylation 50K Point Kit (TGR BioSciences, TGRAS50K) and an IgG Detection Kit (PerkinElmer, 6760617R). […] The plates were then incubated at room temperature on a shaker for ten minutes. The AlphaScreen reaction was prepared under low light conditions (subdued or green light) including p-Akt (Ser 473) Reaction Buffer, Dilution Buffer, Activation Buffer, Acceptor Beads and Donor Beads at a ratio of 40:20:10:1:1 respectively. The AlphaScreen reaction was added to the cell lysate at 6 μl per well using the PerkinElmer® FlexDrop PLUS. The plates were placed in a humid environment to reduce edge effects and incubated overnight at room temperature with restricted air flow in the dark.
On the final day of the experiment, the plates were read on the PerkinElmer® EnVision™ 2103 Multilable Reader using the standard AlphaScreen readout. The POC is calculated and the data is analyzed to report the IC50 IP for pAkt at Serine 473.

PI3Ka = PI3Ka (Homo sapiens, UniProt P42336); experiment: PI3Ka Alpha assay; type: biochemical; settings: the values are: IC50
[2] = U87 MG cells, two hours with compound
[3] = Homo sapiens, U-87 MG, 2 h, U87 MG cells, two hours with compound

Sequence of PI3Ka (P42336 whole entry): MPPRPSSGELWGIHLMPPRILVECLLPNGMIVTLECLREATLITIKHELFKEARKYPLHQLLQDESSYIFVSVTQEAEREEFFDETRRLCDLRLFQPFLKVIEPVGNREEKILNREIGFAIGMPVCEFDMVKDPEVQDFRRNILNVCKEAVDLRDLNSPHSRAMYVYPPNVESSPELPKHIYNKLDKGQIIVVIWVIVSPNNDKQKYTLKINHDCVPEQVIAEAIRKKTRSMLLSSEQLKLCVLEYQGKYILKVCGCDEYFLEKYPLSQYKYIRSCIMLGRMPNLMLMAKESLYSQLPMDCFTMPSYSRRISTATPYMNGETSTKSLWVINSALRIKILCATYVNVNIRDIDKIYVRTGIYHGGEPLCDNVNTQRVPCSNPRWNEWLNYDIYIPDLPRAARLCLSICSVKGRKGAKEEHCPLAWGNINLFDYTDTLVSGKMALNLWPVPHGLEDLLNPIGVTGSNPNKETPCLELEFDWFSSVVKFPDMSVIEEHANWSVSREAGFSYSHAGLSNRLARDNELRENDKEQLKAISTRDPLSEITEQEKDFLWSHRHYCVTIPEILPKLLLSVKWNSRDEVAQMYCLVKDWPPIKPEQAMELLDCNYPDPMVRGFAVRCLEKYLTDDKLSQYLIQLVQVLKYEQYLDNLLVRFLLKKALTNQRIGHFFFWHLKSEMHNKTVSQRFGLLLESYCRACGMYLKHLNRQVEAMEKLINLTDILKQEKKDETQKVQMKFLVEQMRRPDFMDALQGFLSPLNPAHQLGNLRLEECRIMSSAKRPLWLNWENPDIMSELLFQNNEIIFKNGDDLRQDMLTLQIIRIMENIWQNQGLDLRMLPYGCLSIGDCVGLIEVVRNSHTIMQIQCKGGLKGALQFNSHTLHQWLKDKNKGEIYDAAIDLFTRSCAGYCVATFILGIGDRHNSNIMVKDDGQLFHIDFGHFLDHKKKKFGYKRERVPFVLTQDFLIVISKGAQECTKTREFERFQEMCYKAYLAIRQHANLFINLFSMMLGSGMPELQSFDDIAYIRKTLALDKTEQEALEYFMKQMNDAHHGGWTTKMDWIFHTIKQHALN
Sequence of PI3Ka (P27986 whole entry partner): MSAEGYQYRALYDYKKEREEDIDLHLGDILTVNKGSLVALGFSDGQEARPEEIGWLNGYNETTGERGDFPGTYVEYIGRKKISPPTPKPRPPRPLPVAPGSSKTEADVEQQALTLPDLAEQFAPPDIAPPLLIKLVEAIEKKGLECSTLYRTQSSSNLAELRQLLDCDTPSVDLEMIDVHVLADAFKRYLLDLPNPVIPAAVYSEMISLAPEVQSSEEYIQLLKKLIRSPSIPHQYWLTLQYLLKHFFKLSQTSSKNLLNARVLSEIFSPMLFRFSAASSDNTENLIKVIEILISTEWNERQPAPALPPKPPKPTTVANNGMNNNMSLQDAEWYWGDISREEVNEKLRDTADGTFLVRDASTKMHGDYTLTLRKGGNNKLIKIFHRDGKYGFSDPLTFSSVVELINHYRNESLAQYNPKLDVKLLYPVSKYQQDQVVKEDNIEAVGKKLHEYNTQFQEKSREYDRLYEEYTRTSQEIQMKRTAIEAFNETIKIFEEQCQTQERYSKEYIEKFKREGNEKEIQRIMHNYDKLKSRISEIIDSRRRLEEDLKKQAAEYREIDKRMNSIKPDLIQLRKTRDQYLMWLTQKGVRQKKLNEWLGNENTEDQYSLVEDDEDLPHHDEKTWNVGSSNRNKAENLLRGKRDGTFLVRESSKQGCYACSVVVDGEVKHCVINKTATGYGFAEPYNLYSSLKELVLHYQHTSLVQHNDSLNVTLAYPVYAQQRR

Row | Molecule | IC50 (mTOR) | IC50 [1, 2] | AA12047+++PI3Ka Alpha IC50 IP (PI3Ka) | IC50 ([1]; Homo sapiens, U-87 MG, 2 h) | IC50 [1, 3]
1 | 1-(4-((1-(4-amino-6-methyl-1,3,5-triazin-2-yl)-1H-benzimidazol-2-yl)amino)phenyl)-3-(3,5-dichlorophenyl)thiourea [Cpd 108] | 2290 nM | 1070 nM | 470 nM |  | 
2 | 1-(4-((cyclopropylmethyl)amino)-6-methyl-1,3,5-triazin-2-yl)-N-1H-pyrazol-3-yl-1H-benzimidazol-2-amine [Cpd 170] | 1170 nM | 1680 nM | 1370 nM |  | 
3 | 1-(4-amino-6-methyl-1,3,5-triazin-2-yl)-N-1H-pyrazol-5-yl-5-(4-pyridinyl)-1H-benzimidazol-2-amine [Cpd 144] | 66.6 nM | 125 nM | 7260 nM |  | 
4 | 1-(4-amino-6-methyl-1,3,5-triazin-2-yl)-N-(1-(4-morpholinylcarbonyl)-1H-pyrazol-4-yl)-1H-benzimidazol-2-amine [Cpd 198] |  |  | 2550 nM |  | 
5 | 1-(4-amino-6-methyl-1,3,5-triazin-2-yl)-N-(6-methoxy-3-pyridinyl)-1H-benzimidazol-2-amine [Cpd 151] | 124 nM | 88.9 nM | 4550 nM |  | 
6 | 1-(4-amino-6-methyl-1,3,5-triazin-2-yl)-N-cyclopropyl-1H-benzimidazol-2-amine [Cpd 61] | 10800 nM | 1040 nM | 3830 nM |  | 
7 | 1-(4-methyl-6-((2-(4-morpholinyl)ethyl)amino)-1,3,5-triazin-2-yl)-N-1H-pyrazol-3-yl-1H-benzimidazol-2-amine [Cpd 156] | 183 nM | 54.7 nM | 14.6 nM |  | 
8 | 3-((4-methyl-6-(2-(1H-pyrazol-3-ylamino)-1H-benzimidazol-1-yl)-1,3,5-triazin-2-yl)amino)propanenitrile [Cpd 141] |  | 203 nM |  |  | 
9 | 4-((1-(4-amino-6-methyl-1,3,5-triazin-2-yl)-1H-benzimidazol-2-yl)amino)-N-4-pyridinylbenzamide [Cpd 157] | 194 nM | 767 nM | 31800 nM |  | 
10 | Cc1nc(N)nc(-n2c(Nc3cc(O)cc(O)c3)nc3ccccc32)n1 [Cpd 1, 5-((1-(4-amino-6-methyl-1,3,5-triazin-2-yl)-1H-benzimidazol-2-yl)amino)-1,3-benzenediol] | 0.269 nM |  | 0.646 nM | 4.96 nM | 
11 | Cc1nc(N)nc(-n2c(Nc3cccc(O)c3)nc3ccc(C(=O)O)cc32)n1 [Cpd 2, 1-(4-amino-6-methyl-1,3,5-triazin-2-yl)-2-((3-hydroxyphenyl)amino)-1H-benzimidazole-6-carboxylic acid] | 1.38 nM |  |  |  | 224 nM
12 | Cc1nc(N)nc(-n2c(Nc3ccn[nH]3)nc3cc(F)c(F)cc32)n1 [Cpd 9, 1-(4-amino-6-methyl-1,3,5-triazin-2-yl)-5,6-difluoro-N-1H-pyrazol-5-yl-1H-benzimidazol-2-amine] | 24.3 nM |  | 485 nM | 44.6 nM | 
13 | CNC(=O)Nc1ccc(Nc2nc3ccccc3n2-c2nc(C)nc(NCC#N)n2)cc1 [Cpd 111] | 0.765 nM |  | 52.8 nM |  | 69.9 nM
14 | Cc1nc(N)nc(-n2c(Nc3ccc(NC(=O)Nc4ccncc4)cc3)nc3ccccc32)n1 [Cpd 115] | 4.4 nM |  | 7.31 nM |  | 132 nM
15 | CNc1nc(C)nc(-n2c(Nc3cc[nH]n3)nc3cc(C)c(C)cc32)n1 [Cpd 138] | 38.7 nM |  | 1390 nM |  | 158 nM
16 | Cc1nc(N)nc(-n2c(Nc3cnn(C(=O)N4CCOCC4)c3)nc3ccccc32)n1 [Cpd 201] |  |  | 3520 nM |  | 652 nM
